Laboratory results as given in article PMC12234328, “A naphthalimide derivative exerts potent antiplatelet and antithrombotic activities without a bleeding tendency” (Frontiers in Pharmacology, 2025).
Like-named read-outs stand apart in the source and are kept apart here.

Key:
[1] = system: thrombus formation in mesenteric venules; test: Fluorescein sodium-mediated thrombus formation in mesenteric microvessels of mice; assay type: in vivo; details: 20 mg/kg i.v., positive control, n = 6, mean ± SEM
Procedure: Male ICR mice (weighing 20–25 g and aged 5–6 weeks) were purchased from BioLasco (Taipei, Taiwan). The animal use protocol for this project was approved by the Affidavit of Approval of Animal Use Protocol–Taipei Medical University (LAC-2020–0074). All animal experiments were conducted in accordance with the Guide for the Care and Use of Laboratory Animals, Eighth Edition (2011).
The mice were anesthetized with an oxygen–air mixture containing 3% isoflurane at a gas flow rate of 1.5–2 L/min. A bolus dose (bolus volume: 20 μL) of compound 6 (0.3 mg/kg, 0.6 mg/kg, or 1.2 mg/kg), DMSO (solvent control; 1.1 g/kg), or aspirin (20 mg/kg; positive control) was intravenously administered through the tail vein before the administering sodium fluorescein (15 mg/kg). The small intestinal segments were placed on a transparent culture dish, and the mesenteric vessels were observed under a microscope. Venules (20–30 μm) were selected and irradiated with light (wavelength <520 nm) to induce endothelial damage, causing thrombus formation and subsequent vessel occlusion. The time required to occlude a microvessel was recorded ([Lin et al., 2013]). A formula for dose translation based on the […] was used to calculate the appropriate dose for use in the mice ([Reagan-Shaw et al., 2008]). [Reagan-Shaw et al. (2008)] reported that the animal dose should not be extrapolated to a human equivalent dose (HED) by a simple conversion based on body weight. […] The formula for dose translation based on BSA is as follows: HED (mg/kg) = Animal dose (mg/kg) multiply by Animal Km/Human Km. Mouse Km is 3 and Human Km is 37.
FIGURE 3 Effects of compound 6 on thrombosis and hemostasis in mice. Mice were treated with compound 6 (0.3, 0.6, or 1.2 mg/kg), DMSO (solvent control), or aspirin (20 mg/kg; positive control) via intravenous route for 10 min. (A) The microthrombus formation (arrows) in mesenteric venules. Scale bar = 30 μm. […] Each point on the plot indicates a mouse (n = 6). Data (A,B) are presented as means ± SEM (n = 6). *p < 0.05 and ***p < 0.001 compared with the DMSO group.

recombinant human GPVI = biological target: T1, recombinant human GPVI (Homo sapiens, UniProt Q9HCN6); test: Surface plasmon resonance binding assay (OpenSPR); details: his-tagged recombinant GPVI on NTA chip, compound at 0.1 and 1 μM; read-out: KD (equilibrium dissociation constant)
T1 sequence (Q9HCN6 21-267 limits assumed): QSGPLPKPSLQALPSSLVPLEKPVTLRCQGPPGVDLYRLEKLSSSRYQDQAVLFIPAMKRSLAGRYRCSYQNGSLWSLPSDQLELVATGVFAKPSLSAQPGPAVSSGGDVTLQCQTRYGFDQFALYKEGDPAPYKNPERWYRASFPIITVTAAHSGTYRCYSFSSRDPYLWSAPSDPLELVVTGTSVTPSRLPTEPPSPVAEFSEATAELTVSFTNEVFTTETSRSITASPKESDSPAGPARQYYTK
Procedure: Surface plasmon resonance (SPR) analysis was performed using an OpenSPR instrument (Nicoya, Kitchener, Canada). A nitrilotriacetic acid (NTA) sensor chip was installed in the OpenSPR instrument. Running buffer (phosphate-buffered saline) was pumped at the maximum flow rate, and 80% isopropanol was injected to remove any bubbles. Subsequently, 200 μL of a 200 mM imidazole solution was injected to prime the sensor surface. After rinsing the chip with running buffer, 200 μL of a 40 mM NiCl2 solution was used to activate the NTA chip. After 5 min of interaction time, his-tagged recombinant GPVI proteins were bound to the NTA chip by perfusing the GPVI protein solution at a flow rate of 20 μL/min. Solutions of compound 5 or compound 6 (0.1 and 1 μM) were then injected. The equilibrium dissociation constant (KD) was determined using the OpenSPR system (Nicoya).
An SPR binding assay was performed. First, recombinant human GPVI was coated on the NTA sensor chip. Solutions of compound 5 and compound 6 (0.1 and 1 μM) were then perfused on the chip, and the KD was determined using the OpenSPR system (Nicoya Lifesciences).
FIGURE 7 Direct binding of compound 6 on GPVI. […] Equilibrium dissociation constant (KD) were determined using the OpenSPR system. […]

[2] = system: human platelet suspensions stimulated with collagen; design: method as in Shih et al., 2021; details: human platelets; ref Shih et al., 2021; read-out: IC50, collagen-induced platelet aggregation; cited from earlier work
[3] = system: human platelet suspensions stimulated with thrombin; design: method as in Shih et al., 2021; details: high concentrations; ref Shih et al., 2021; cited from earlier work
[4] = system: human platelet suspensions stimulated with U46619; design: method as in Shih et al., 2021; details: high concentrations; ref Shih et al., 2021; cited from earlier work
[5] = system: thrombus formation in mesenteric venules; design: method as in Shih et al., 2021; details: mice, ref Shih et al., 2021, cited from earlier work
[6] = system: tail bleeding (hemostasis); design: method as in Shih et al., 2021; details: ref Shih et al., 2021; cited from earlier work

Kd (recombinant human GPVI)	SMILES	Occlusion time [1]	IC50 [2]	Effect on thrombin-induced platelet aggregation [3]	Effect on U46619-induced platelet aggregation [4]	Thrombus formation ([5]; 1.2 mg/kg)	Thrombus formation ([5]; 2.3 mg/kg)	Bleeding tendency [6]
	CC(=O)Oc1ccccc1C(=O)O [aspirin, reference compound]	492.2 ± 31.9 s						
0.3 µM	CN(C)CCN1C(=O)c2cccc3c(NCCNC(=O)c4ccccn4)ccc(c23)C1=O [compound 5]		6.5 µM	can block	can block	not	inhibits thrombus formation	demonstrated a bleeding tendency
